According to patent publication US20260069599A1, “INHIBITORS OF BROMODOMAIN-CONTAINING PROTEIN 4 AND PHOSPHOINOSITIDE 3-KINASE” (Board of Regents of the University of Nebraska, priority 2022, published 2026):
“Also recorded” adds a separate entry of the source.

Experiments:
BRD2-BD2 = biological target: T1, BRD2-BD2 (Homo sapiens, UniProt P25440); experiment: Protein Thermal Shift (PTS) assay on BRD2-BD2; assay type: binding; details: 100 μM ligand, 20 μM BD protein; positive = Tm increase
T1 construct: polyhistidine (N, cleaved yes); made in house; host or cells: E. coli (T7 express)
T1 sequence (P25440 344-453 limits assumed): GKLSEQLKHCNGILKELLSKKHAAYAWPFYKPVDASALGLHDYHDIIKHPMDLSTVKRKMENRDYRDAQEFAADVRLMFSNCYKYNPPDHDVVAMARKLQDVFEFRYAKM
Protocol: The genes encoding human BRD2-BD1, BRD2-BD2, and BRD4-BD2 were codon-optimized for expression in E. coli. […] The sequence-confirmed plasmids were used to transform T7 express E coli. Large-scale cell cultures were grown in LB media containing […] carbenicillin and incubated with shaking at 37° C. until the OD600 nm reached 0.6. Then cultures were cooled to 16° C., and 1 mM isopropyl β-D-1-thiogalactopyranoside was added to induce the protein expression. After 20 hours of incubation, cells were harvested. The resulting cell pellet was resuspended in a lysis buffer containing 50 mM Tris pH 7.5, 200 mM NaCl, 0.5 mM imidazole, and 0.3 mM tris(2-carboxyethyl) phosphine (TECP). After the addition of DNase I and lysozyme, the cell suspension was incubated on ice for 30 minutes and lysed by sonication. The lysate was clarified by centrifugation at 12,000 rpm for 45 minutes. […]
Each reaction used 20 μM concentration of recombinant BD protein in a 50 mM Tris pH 7.5 buffer containing 100 mM NaCl, 0.3 mM tris(2-carboxyethyl) phosphine HCl, and 1% dimethyl sulfoxide. […] Evaluation of the derivative of the fluorescence signal employed the Applied Bioscience Protein Thermal Shift Software version 1.3 to determine the average melting temperature (Tm) for each sample and the standard deviation(s) of those Tm values.

[1] = system: DAOY and HD-MB03 spheroids; experiment: Tumor spheroid live/dead assay; assay type: cell-based, human; details: 5.0 μM, 7 days
Protocol: Tumor spheroids were formed using MB cells following the method described (Bhattarai, et al. (2021) J. Control. Release 329:585-597). For tumor spheroids assay, 1500 and 500 DAOY and HD-MB03 cells, respectively, were suspended in 100 μL media and seeded in ultra-low attachment (ULA) 96-well plate for a week and 50 μL of media was replaced by fresh media every third day and spheroid size was tracked under fluorescent microscope. […] After 7 days of the treatment period, spheroids were stained with Calcein AM (2 μM) and ethidium homodimer-1 (3 μM) (LIVE/DEAD™; L3224) to check the live/dead cells. Images were taken by confocal laser microscope (Zesis LSM 710) with 10× magnification at 40 μm depth.

[2] = system: DAOY cell generated orthotopic MB; experiment: Intracranial orthotopic MB xenograft model; assay type: in vivo, NSG mice; details: for tumor at cerebellum region by H&E and Ki-67 IHC: vehicle-treated vs treated mice
Protocol: For the orthotopic MB model, stable luciferase-expressing DAOY cells (0.1×10^6) were used to generate the orthotopic MB tumor in NSG mice (Kumar, et al. (2021) Biomaterials 278:121138). Bioluminescence imaging using IVIS (Spectrum) was done to monitor the tumor growth weekly after implantation surgery.
A total of seven injections were given, and the mouse body weights were measured before every injection. The tumor growth was monitored by calipers in the case of the xenograft model and by IVIS imaging for the orthotopic model. For histological examination, the major organs of representative mice from each animal group were dissected and stained with H&E. Tissues after being fixed with 10% paraformaldehyde solution for 24 hours were embedded in 5 μm thick sections of paraffin, and were stained for different proteins. Stained slides were imaged at 40× magnification using an iScan HT Slide Scanner (Ventana Medical Systems, Inc, AZ).
Next, it was tested whether MDP5 treatment suppresses MB growth in an intracranial orthotopic xenograft model. DAOY cells stably expressing green fluorescent protein (GFP)/luciferase were injected into the cerebella of NSG mice. After twenty-one days of implantation, the tumor signal was measured with IVIS, and animals were divided into the vehicle (propylene glycol) or MDP5 treated groups. A drug solution was injected every three days for 28 days, and bioluminescence imaging was performed once a week.

[3] = system: MB cells (DAOY and HD-MB03); experiment: Colony formation (clonogenic) assay; assay type: cell-based, human; details: 48 hours treatment, 14-day incubation, both cell lines
Protocol: Approximately 500 MB cells were seeded overnight in 6 well plates and treated with MDP5 at IC50 for the colony formation assay. After 48 hours of incubation, the media was replaced by fresh media and allowed cells to grow for 2 weeks. Then, cells were fixed into 10% formalin and stained with a 0.5% solution of crystal violet dye in 20% methanol. After taking pictures, the colonies were dissolved in 10% acetic acid solution to measure the optical density.
Colony formation ability, cell cycle analysis, and cell apoptosis assay were performed in MB cells in presence of drugs as described (Kumar et al. (2021) Biomaterials 278:121138). For the colony formation assay, after taking images, the colonies were dissolved in 10% acetic acid solution to measure the optical density (OD).

MB cells = experiment: RT-qPCR of target genes; assay type: cell-based, human; details: RT-PCR
Protocol: Whole RNAs in cells after treatments were extracted using an RNA extraction kit (RNAeasy, Qiagen) to detect mRNA expression. cDNA templates were synthesized by reverse transcribing the RNA using a High-Capacity RNA-to-cDNA™ Kit (Thermo Fisher). The final RT-qPCR reaction mixture was used consisting of a total volume 10 μl containing […] SYBR Green master mix, 0.5 μl of each primer (10 μM) (Table 1), 2 μl of the cDNA template, and 3.5 μl RNase-free H2O. The relative expression level of the targeted gene was measured with Lightcycler 480 (Roche). The gene expression levels were calculated according to the 2^−ΔΔCq method using β-actin as the internal reference gene. Each assay was repeated≥3 times.

ONS-76 cells = experiment: CD15+ tumor propagating cell population by FACS; assay type: cell-based; details: 5.0 μM, 48 hours, vs control
Protocol: The tumor propagating cell population in ONS-76 cells was identified based on CD15+ staining by fluorescence-activated cell sorting (FACS) analysis. […] Then, cells were trypsinized and 1×10^6 cells stained with a 5 μL aliquot of APC-CD15 antibody (BioLegend; 301,908) and analyzed with flow cytometry (BD, LSR Fortessa).

SMILES | change in BRD2-BD2 melting temperature (Tm) (BRD2-BD2) [°C] | cell viability of tumor spheroids [1] | tumor at cerebellum region by H&E and Ki-67 IHC [2] | colony formation [3] | BCL2 mRNA expression (MB cells; MB cells) | cyclin D1 gene expression (MB cells; vs control) | size / formation of tumor spheroids ([1]; vs DMSO-treated control) | percentage of CD15+ cell population (ONS-76 cells) | survival ([2]; control animals all dead by day 35) | orthotopic tumor growth (IVIS imaging) ([2]; injection every three days for 28 days) | bioluminescence (BLI) signal ([2]; vs rapid increase in control animals)
O=c1cc(N2CCOCC2)oc2c(-c3ccc4c(c3)OCCO4)csc12 [SF2523, reference compound] | 6.3 | significantly decreased | much larger tumor at the cerebellum region of the vehicle-treated mouse | – | – | – | – | – | – | – | –
O=c1cc(N2CCOCC2)oc2c(-c3ccc4c(c3)OCCO4)cccc12 [MDP5, 8-(2,3-dihydrobenzo [b][1,4]dioxin-6-yl)-2-morpholino-4H-chromen-4-one] | 2.4 | significantly decreased | much larger tumor at the cerebellum region of the vehicle-treated mouse | significant decrease in colony formation potential; also recorded: lower number of colonies in both cell lines; also recorded: significantly decreased the colony formation capacity | significantly reduced | decreased significantly | decreased the tumor spheroid formation in both MB cells | declined as compared to control cells | four animals out of five survived up to 49 days; also recorded: prolonged the survival | significant effect on the suppression of tumor growth; also recorded: significantly suppressed tumor growth in vivo | low BLI signal
